Measurements: US11351142B2, “Composition and method for treating neuronal ceroid lipofuscinosis” (Rush University Medical Center, priority 2012, dated 2022)

Tests used:
TPP1 [1] = experiment: Immunofluorescence for TPP1 in SH-SY5Y cells; format: cell-based, human; settings: 25 μM gemfibrozil and 10 μM fenofibrate, 24 hrs
Method: Immunocytochemistry was performed as described earlier (25). Briefly, 8 well chamber slides containing mouse primary astrocytes, mouse neurons, human primary astrocytes or SH-SY5Y cells were cultured to 70-80% confluence were fixed with chilled Methanol (Fisher Scientific, Waltham, Mass.) overnight, followed by two brief rinses with filtered PBS. Samples were blocked with 2% BSA (Fisher Scientific) in PBS containing Tween 20 (Sigma) and Triton X-100 (Sigma) for 30 min and incubated at room temperature under shaking conditions for 2 hr in PBS containing the following anti-mouse primary antibodies: […] Santa Cruz Biotech, Santa Cruz, Calif.), GFAP, (1:100; Santa Cruz), and 3-tubulin (1:5000; Millipore). After four 15 min washes in filtered PBS, the slides were further incubated with Cy2 or Cy5-labeled secondary antibodies (all 1:200; Jackson ImmunoResearch, West Grove, Pa.) for 1 hr under similar shaking conditions. Following four 15 minute washes with filtered PBS, cells were incubated for 4-5 min with 4′, 6-diamidino-2-phenylindole (DAPI, 1:10,000; Sigma). The samples were run in an EtOH and Xylene (Fisher) gradient, mounted and observed under Olympus BX41 fluorescence microscope.

Cln2 mRNA [2] = experiment: Cln2 mRNA expression by semi-quantitative RT-PCR and real-time PCR in mouse primary astrocytes; format: cell-based
Method: Astroglia were isolated from mixed glial cultures as described (17,18) according to the procedure of Giulian and Baker (19). Briefly, on day 9, the mixed glial cultures were washed three times with Dulbecco's modified Eagle's medium/F-12 and subjected to shaking at 240 rpm for 2 h at 37° C. on a rotary shaker to remove microglia. After 2 days, the shaking was repeated for 24 h for the removal of oligodendroglia and to ensure the complete removal of all nonastroglial cells. The attached cells were seeded onto new plates for further studies. Total RNA was isolated from mouse primary astrocytes and human primary astrocytes using RNA-Easy Qiagen (Valencia, Calif.) kit following manufactures protocol. Semi-quantitative RT-PCR was carried out as described earlier (24) using oligo (dT) 12-18 as primer and moloney murine leukemia virus reverse transcriptase (MMLV-RT, Invitrogen) in a 20 μl reaction mixture. The resulting cDNA was appropriately amplified using Promega Master Mix (Madison, Wis.) and the following primers (Invitrogen) for murine genes: The mRNA quantification was performed using the ABI-Prism7700 sequence detection system (Applied Biosystems, Foster City, Calif.) using iTaq™ Fast Supermix With ROX (Bio-Rad, Hercules, Calif.) and the following 6-FAM/ZEN/IBFQ-labeled primers for murine genes: Cln2 and Gapdh (Integrated DNA Technologies Coralville, Iowa). The mRNA expression of the targeted genes was normalized to the level of Gapdh mRNA and data was processed by the ABI Sequence Detection System 1.6 software.

Cln2 mRNA [3] = experiment: Cln2 mRNA expression by RT-PCR and real-time PCR in human primary astrocytes; format: cell-based
Method: Primary human astroglia were prepared as described (20,21). […] Briefly, 11- to 17-week-old fetal brains obtained from the Human Embryology Laboratory (University of Washington, Seattle, Wash., USA) were dissociated by trituration and trypsinization. On 9th day, these mixed glial cultures were placed on a rotary shaker at 240 rpm at 37° C. for 2 h to remove loosely attached microglia. On 11th day, the flasks were shaken again at 190 rpm at 37° C. for 18 h to remove oligodendroglia. The attached cells remaining were primarily astrocytes. These cells were trypsinized and subcultured in complete media at 37° C. with 5% CO2 in air to yield more viable and healthy cells. […] Semi-quantitative RT-PCR was carried out as described earlier (24) using oligo (dT) 12-18 as primer and moloney murine leukemia virus reverse transcriptase (MMLV-RT, Invitrogen) in a 20 μl reaction mixture. The resulting cDNA was appropriately amplified using Promega Master Mix (Madison, Wis.) and the following primers (Invitrogen) for murine genes: The mRNA quantification was performed using the ABI-Prism7700 sequence detection system (Applied Biosystems, Foster City, Calif.) using iTaq™ Fast Supermix With ROX (Bio-Rad, Hercules, Calif.) and the following 6-FAM/ZEN/IBFQ-labeled primers for murine genes: Cln2 and Gapdh (Integrated DNA Technologies Coralville, Iowa). […]

TPP1 [4] = experiment: Immunofluorescence for TPP1 in mouse primary astrocytes; format: cell-based
Method: Astroglia were isolated from mixed glial cultures as described (17,18) according to the procedure of Giulian and Baker (19). Briefly, on day 9, the mixed glial cultures were washed three times with Dulbecco's modified Eagle's medium/F-12 and subjected to shaking at 240 rpm for 2 h at 37° C. on a rotary shaker to remove microglia. After 2 days, the shaking was repeated for 24 h for the removal of oligodendroglia and to ensure the complete removal of all nonastroglial cells. The attached cells were seeded onto new plates for further studies. Immunocytochemistry was performed as described earlier (25). Briefly, 8 well chamber slides containing mouse primary astrocytes, mouse neurons, human primary astrocytes or SH-SY5Y cells were cultured to 70-80% confluence were fixed with chilled Methanol (Fisher Scientific, Waltham, Mass.) overnight, followed by two brief rinses with filtered PBS. Samples were blocked with 2% BSA (Fisher Scientific) in PBS containing Tween 20 (Sigma) and Triton X-100 (Sigma) for 30 min and incubated at room temperature under shaking conditions for 2 hr in PBS containing the following anti-mouse primary antibodies: […] Santa Cruz Biotech, Santa Cruz, Calif.), GFAP, (1:100; Santa Cruz), and 3-tubulin (1:5000; Millipore). […] The samples were run in an EtOH and Xylene (Fisher) gradient, mounted and observed under Olympus BX41 fluorescence microscope.

SMILES: Cc1ccc(C)c(OCCCC(C)(C)C(=O)O)c1 [gemfibrozil]
- level of TPP1 protein (immunofluorescence) (TPP1 [1]): considerable increase
- Cln2 mRNA expression (Cln2 mRNA [2]; PPARα−/− astrocytes, different concentrations, 24 hrs): little or no effect
- Cln2 mRNA expression in presence of PPARγ antagonist (Cln2 mRNA [2]; WT astrocytes pre-treated with GW9662 for 30 min): increased expression
- Cln2 level (quantitative real time PCR) (Cln2 mRNA [2]; astrocytes with RXRα knockdown (RXRα siRNA), gemfibrozil (10 μM), RA (0.5 μM) alone and in combination): almost unresponsive
- increase in Cln2 mRNA levels (quantitative real time PCR) (Cln2 mRNA [2]; mouse primary astrocytes, 24 hrs, RA 0.5 μM, gemfibrozil 10 μM, combination 10 μM gemfibrozil and 0.5 μM RA): ~4 fold
- Cln2 mRNA levels (RT-PCR and qPCR) (Cln2 mRNA [2]; mouse primary astrocytes, serum free media, different doses and time points, maximum increase at 24 hrs of 25 μM gemfibrozil): upregulated
- increase in Cln2 mRNA levels, maximum of time course (Cln2 mRNA [3]; 25 μM gemfibrozil, at 12 hrs): ~10 fold
- increase in Cln2 mRNA levels, maximum of dose response (Cln2 mRNA [3]; 25 uM gemfibrozil, different concentrations for 12 hrs): ~15 fold
- TPP1 (immunofluorescence) (TPP1 [4]; PPARα−/− astrocytes compared to WT and PPARβ−/− cells, 25 μM gemfibrozil and 10 μM fenofibrate, 24 hrs): little or no increase
- TPP1 protein (immunofluorescence) (TPP1 [4]; mouse primary astrocytes, different concentrations): dose dependant increase
